The test system of one test is tHDF (HS68) cells. In words: Clonogenic assay after IR, tHDF (HS68). In kind it is cell-based, human. To be noted: PD0332991 100 nM, 2BrIC 2 μM, CINK4 6 μM, IR 0-9 Gy. Here is the method: FIG. 6A is a set of micrograph images of crystal violet stained cell cultures of cyclin-dependent kinase 4/6 (CDK4/6)-dependent cells (HS68) plated at different cell/well ratios and treated with either dimethyl sulfoxide (DMSO) as a negative control or with the selective CDK4/6 inhibitor 2-bromo-12,13-dihydro-5H-indolo[2,3-a]pyrrolo[3,4]carbazole-5,6-dione (2BrIC) at 2 μM for 24 hours prior to exposure to ionizing radiation at 0, 1.5, 3, 6, or 9 gray (Gy), as indicated.
Data plotted is the area/cell ratio of PD0332991 treated cells to dimethyl sulfoxide (DMSO) treated cells. Error bars show standard error of the mean.
FIG. 9A is a set of micrograph images of cell cultures of cyclin-dependent kinase 4/6 (CDK4/6)-dependent cells (HS68) plated at different cell/well ratios and pretreated with either dimethyl sulfoxide (DMSO) as a control or with the nonselective CDK4/6 inhibitor trans-4-[[6-ethylamino)-2-[[1-phenylmethyl)-1H-indol-5-yl]amino]-4-pyrimidinyl]amino]]-cyclohexanol (CINK4) at 6 μM for 24 hours prior to exposure to ionizing radiation at 0, 1.5, 3, 6, or 9 gray (Gy), as indicated. The plates were stained with crystal violet to visualize cell colonies.
Clonogenic Assay: The clonogenic assay was performed as previously described (see Franken et al., Nature protocols, 1, 2315-1319 (2006)) with cells plated in a six-well plate at least 6 hours prior to treatment with CDK inhibitor for 24 hours, with 6 Gy IR occurring 12 hours after initiation of CDK inhibitor exposure. Cells were grown for 16 days, washed, fixed, and stained with crystal violet. Plates were then imaged using an Odyssey infrared scanner (Li-Cor Biosciences, Lincoln, Nebr., United States of America) and quantified using the accompanying software.

The test system of test [1] is human melanoma cell line WM2664. Kind of test: Cell cycle analysis (BrdU incorporation in vitro), WM2664. Particulars: for cell cycle effect: WM2664, 24 hours exposure. It is filed as cell-based. An excerpt: (§1) FIG. 3A is a set of graphs showing the dose-response curves for cycle analysis in both cyclin-dependent kinase 4/6 (CKD4/6)-dependent cells (human telomerized human diploid fibroblasts (tHDFs, left-hand column of graphs) and a CDK4/6-dependent human melanoma cell line (WM2664, middle column of graphs)) and in CDK4/6-independent cells (a human retinoblastoma tumor suppressor protein (RB)-null melanoma cell line (A2058), right-hand column of graphs). […] The percentage of cells in the G1 phase is indicated by the data shown in the open triangles, while the percentage of cells in the S phase is shown by the data in the shaded circles and the percentage of cells in the G2/M phase is indicated by the data in the double “x”s.
FIG. 8 is a set of representative cell cycle dot-plots for cyclin-dependent kinase 4/6 (CDK4/6)-dependent (WM2664) human melanoma cells (top two rows) and CDK4/6-independent (A2058) human melanoma cells (bottom two rows) that had been treated with dimethyl sulfoxide (DMSO) as a control or with 300 nM, 1 μM, 3 μM, 10 μM or 30 μM of trans-4-[[6-ethylamino)-2-[[2-phenylmethyl)-1H-indol-5-yl]amino]-4-pyrimidinyl]amino]]-cyclohexanol (CINK4).
(§2) Cell Lines: KPTR1, KPTR4. and KPTR5 were derived from tumor-bearing TyrRAS+Ink4a/Arf−/− by standard procedures and cultured in RPMI+10% fetal bovine serum (FBS). Telomerized HDFs (tHDFs, also known as HS68) were cultured in DMEM+10% FBS with penicillin and streptomycin. The same conditions were used for A2058 and WM2664, human melanoma cell lines with known RB-pathway mutations: A2058 is RB-null, whereas WM2664 lacks p16^INK4a/Arf. See Shields, et al., Cancer Res., 67, 1502-1512 (2007). Cells were irradiated for indicated doses in a Rad Source Inc. (Alpharetta, Ga., United States of America) RS-2000 Biological Irradiator at 160 kV, 25.0 mA, at distance setting 1, with a dose rate of 103 rads/min.
(§3) BrdU Incorporation in vitro: Cells were plated and allowed to adhere overnight or at least 6 hours prior to adding CDK4/6 inhibitor at the indicated concentrations. Cells were grown for 24 hours in the presence of CDK4/6 inhibitor. 15 minutes prior to cell harvesting, 5-Bromo-2-deoxyuridine (BrdU) was added to the media at a final concentration of 10 μM. The cells were then washed, trypsinized, pelleted, fixed, permeabilized, stained, and measured on a flow cytometer as described in manufacturer directions for the BrdU Kit (BD Biosciences Pharmingen, San Diego, Calif., United States of America).
(§4) The proliferation of seven RB-deficient human small cell lung cancer lines was also resistant to the selective CDK4/6 inhibitors.

Test [2] has as its system RB-null melanoma line A2058. Kind of test: Cell cycle analysis (BrdU incorporation in vitro), A2058. Particulars: A2058, concentrations between 300 nM and 30 μM. In kind it is cell-based, human. An excerpt:
FIG. 3A is a set of graphs showing the dose-response curves for cycle analysis in both cyclin-dependent kinase 4/6 (CKD4/6)-dependent cells (human telomerized human diploid fibroblasts (tHDFs, left-hand column of graphs) and a CDK4/6-dependent human melanoma cell line (WM2664, middle column of graphs)) and in CDK4/6-independent cells (a human retinoblastoma tumor suppressor protein (RB)-null melanoma cell line (A2058), right-hand column of graphs). […] The percentage of cells in the G1 phase is indicated by the data shown in the open triangles, while the percentage of cells in the S phase is shown by the data in the shaded circles and the percentage of cells in the G2/M phase is indicated by the data in the double “x”s. […]
BrdU Incorporation in vitro: Cells were plated and allowed to adhere overnight or at least 6 hours prior to adding CDK4/6 inhibitor at the indicated concentrations. […] The cells were then washed, trypsinized, pelleted, fixed, permeabilized, stained, and measured on a flow cytometer as described in manufacturer directions for the BrdU Kit (BD Biosciences Pharmingen, San Diego, Calif., United States of America). […]

For test [3], the system named is telomerized human diploid fibroblasts (tHDF). Kind of test: Cell cycle analysis (BrdU incorporation in vitro), tHDF. In kind it is cell-based. Particulars: 24 hours exposure.
From the text: as §1, §2, §3, §4
On the technique in general: Uptake of a labelled nucleoside into DNA is a usual measure of proliferation.

Entries after “also recorded” stand apart in the source; their conditions may differ.

As for `CCNc1cc(N[C@H]2CC[C@H](O)CC2)nc(Nc2ccc3c(ccn3Cc3ccccc3)c2)n1` [CINK4], the “clonogenic cell survival after IR (area/cell ratio relative to DMSO)” value with tHDF (HS68) cells was “failed to enhance cell survival; also recorded: lack of enhanced cell survival”. For the same molecule, the “substantially pure G1 arrest” value in test [1] (WM2664, concentrations between 300 nM and 30 μM) is “did not induce a substantially pure (i.e. “clean”) G1 arrest”; in test [2], “did not induce a substantially pure (i.e. “clean”) G1 arrest”.
For the molecule `COc1ccc(F)c(F)c1C(=O)c1cnc(NC2CCN(S(C)(=O)=O)CC2)nc1N` [Compound 7], the cell cycle effect entry in test [3] is listed as “G2/M block, intra-S arrest, or cell death (sub-GO)”; in test [1], “G2/M block, intra-S arrest, or cell death (sub-GO)”.
As to `CN1CC[C@H](c2c(O)cc(O)c3c(=O)cc(-c4ccccc4Cl)oc23)[C@H](O)C1` [flavopiridol], the cell cycle effect result in test [3] is reported as “G2/M block, intra-S arrest, or cell death (sub-GO)”; in test [1], “G2/M block, intra-S arrest, or cell death (sub-GO)”.
Regarding `CC[C@H](CO)Nc1nc(NCc2ccccc2)c2ncn(C(C)C)c2n1` [roscovitine, Roscovitine], the cell cycle effect result in test [3] is “G2/M block, intra-S arrest, or cell death (sub-GO)”; in test [1], “G2/M block, intra-S arrest, or cell death (sub-GO)”.

The record behind these values is US20110224221A1, “HEMATOPOIETIC PROTECTION AGAINST IONIZING RADIATION USING SELECTIVE CYCLIN-DEPENDENT KINASE 4/6 INHIBITORS” (priority 2008, published 2011).
